Columns and labels:
[1] = test system: E. coli ARC2687; experiment: Hollow-fiber infection model (HFIM), dose fractionation; assay type: cell-based; conditions: with CPD
Description: (§1) The PK/PD driver of ETX1317 was assessed in the presence of CPD in both hollow-fiber[28]−[31] and chemostat[32]in vitro infection model systems. In all cases, CPD was administered q12h via a 2 h infusion and eliminated with a 2 h half-life, with the concentration of drug exceeding the MIC (the MIC of CPD in the presence of ETX1317 at a 1:2 ratio) for 50% of the dosing interval for each strain. Representative Emax plots are shown graphically for Escherichia coli ARC2687 in the hollow-fiber model and Klebsiella pneumoniae ARC4420 in the chemostat system (Figure 2). […] This could partially be attributed to the distribution of the concentration ranges utilized for the hollow-fiber infection model (HFIM) where most of the data scatter occurred in the efficacious dose range for lower MIC strains. It is important to note that initial evaluation of K. pneumoniae ARC4420 and ARC5118 was completed in the HFIM but rapid degradation of CPD, presumably through accumulation of β-lactamases in the extra-capillary space of the cartridge precluded a reliable assessment of the PK/PD driver with these strains in this model.[32] […] In both the HFIM and chemostat models the optimum critical threshold of ETX1317 was established through iterative Emax fitting of a range of ETX1317 concentrations from 0.5× to 2× the CPD:ETX1317 MIC value. In the HFIM, %Time > ETX1317 CT of 2× MIC provided the highest correlation to observed activity which appeared to be independent to the apparent intrinsic activity of ETX1317 (as reflected by ETX1317 MICBLI of K. pneumoniae ARC4486 vs ARC4488). […] In both models CPD infused alone mimicked vehicle control as expected with similar growth of +2 to 4 log10 CFU/mL.
(§2) Enterobacteriaceae isolates E. coli ARC2687 and K. pneumoniae isolates ARC4486, ARC4488, ARC5118, and ARC4420 were prepared for infection from an overnight plate culture. On the day of the experiment, a few colonies of bacteria were inoculated in Mueller Hinton Broth II (MHBII, Sigma-Aldrich, St. Louis, MO) and incubated at 35 °C until reaching log-phase growth, about 1 h. In hollow-fiber studies cell population density is confirmed by turbidimetric assay (OD600) and final dilution is adjusted to deliver approximately 15 mL of bacteria (1 × 10^6 CFU/mL) to the extra-capillary space of the hollow-fiber cartridge (Fibercell Systems, Inc., Frederick, MD). After 1 h, targeted drug concentrations were introduced using a 2 h infusion via a syringe pump (Harvard Apparatus, Holliston, MA). For chemostat experiments approximately 1 mL of bacteria (1 × 10^8 CFU/mL) were introduced to the chemostat reservoir bottle with 100 mL MHBII to dilute bacterial culture and reach a target CFU density of 1 × 10^6 CFU/mL. After 5 min, each chemostat bottle was exposed to targeted drug with a 2 h infusion administered via syringe pump.
(§3) ETX1317 and CPD were dissolved in MHBII (accounting for potency) and delivered as a 2 h infusion via syringe pump (Harvard Apparatus, Holliston, MA). Solubility and stability were confirmed at room temperature for the experiment. Dose formulation potency was verified by LC/MS/MS.
(§4) Dose range and dose fractionation were performed in hollow-fiber infection model (HFIM) and chemostat (one-compartment) in vitro infection model. Bacteria treated with media only (growth control) and dose arms spanning a 64-fold exposure range of drug delivered within regimens of q6h, q12h, and q24h were used. E. coli ARC2687 and K. pneumoniae ARC4486 and ARC4488 were completed in the HFIM. K. pneumoniae ARC5118 and ARC4420 were studied in the chemostat system. CPD concentrations were targeted to achieve exposure of ∼50%Time > MIC determined in the presence of ETX1317. Both CPD and ETX1317 were administered via a 2 h infusion from syringe pumps (Harvard Apparatus) to mimic the approximate Cmax following oral absorption observed clinically for CDP. […]

[2] = test system: K. pneumoniae ARC4486; experiment: as above; assay type: cell-based; conditions: with CPD
Description: as §1, §2, §3, §4

[3] = test system: K. pneumoniae ARC4488; experiment: as above; assay type: cell-based; conditions: with CPD
Description: as §1, §2, §3, §4

[4] = Plasma protein binding; assay type: in vitro ADME, monkey
Description: Plasma protein binding was determined by rapid equilibrium dialysis. Plasma was freshly prepared from blood samples drawn in to EDTA (anticoagulant) containing tubes. Plasma was prepared using a table-top centrifuge and spun per instruction of the tube manufacturer and specifications (Beckton, Dickinson and Company, Franklin Lakes, NJ) and placed on ice prior to use.
Pooled plasma samples were centrifuged at 2000 rpm (approximately 1400g) for 15 min at 4 °C to remove debris. Approximately 90% of the clear supernatant fraction was transferred to a separate tube. Samples (500 μL) were then spiked with a 100× stock solution 100 μM, 0.5 mM, and 10 mM ETX1317 in DMSO respectively for 1, 5, and 100 μM final concentrations, transferred to the top of the filter chambers, and allowed to equilibrate for 15 min prior to centrifugation. The filtrate tubes were centrifuged at 14000g for 15 min at 4 °C. Next, 50 μL of the filtrate was precipitated with 300 μL of acetonitrile containing 250 ng/mL of carbutamide as the internal standard and the samples were analyzed by LC/MS/MS analysis.

[5] = Excretion into the bile; conditions: in vivo
Description: Based upon the non-clinical PK data, a range of 60–80% bioavailability and a moderate absorption rate of 0.5–1.0 h^–1 have been considered for humans. In consideration of these predicted parameters, mean percent fT > CT of 1 μg/mL (2× MIC of 0.5 μg/mL) estimates for a 500 mg ETX1317 equiv q12h dose of ETX0282 are summarized in Table S3.

Compound: CC1=C[C@@H](C(N)=O)N2C[C@@H]1N(O[C@H](F)C(=O)O)C2=O [ETX1317]
- %Time > CT of 1 μg/mL for 1–log10 kill [1]: 14%
- %Time > CT of 1 μg/mL for stasis [1]: 7%
- %Time > CT of 1 μg/mL for 1–log10 kill [2]: 49%
- %Time > CT of 1 μg/mL for stasis [2]: 37%
- %Time > CT of 1 μg/mL for 1–log10 kill [3]: 47%
- %Time > CT of 1 μg/mL for stasis [3]: 43%
- Proportion unbound ([4]; 1 µM): 77%
- Proportion unbound ([4]; 5 µM): 97%
- excretion into the bile [5]: minimal excretion

From paper PMC7297445, “Pharmacokinetic/Pharmacodynamic Determination and Preclinical Pharmacokinetics of the β-Lactamase Inhibitor ETX1317 and Its Orally Available Prodrug ETX0282” (ACS Infectious Diseases, 2020)
